Article PMC6523382 (Pharmaceutics, 2019)
Where two headings read alike, the source gives them in different places.

What was measured:
[1] = tested on: rat duodenal, jejunal, and ileal segments; experiment: Intestinal absorptive permeability in Ussing chambers; type: in vitro ADME
Procedure: [31]. Briefly, duodenum, jejunum, and ileum segments were dissected and washed as described earlier. The duodenal, jejunal, and ileal segments mounted on the inserts of the Ussing chambers ([…], Holliston, MA, USA) were acclimatized with HBSS for 30 min. […] Aliquots (400 μL) of HBSS in the basal side were withdrawn at 0, 30, 60, 90, and 120 min, and the withdrawn samples were compensated with an equal volume of fresh, preheated HBSS. Carbogen gas (5% CO2/ 95% O2) was bubbled into the Ussing chambers at a rate of 150 drops/min during the experiment. […] For the generation of Na^+ gradient, rat duodenal, jejunal, and ileal segments mounted on the inserts of the Ussing chamber were pretreated with Na^+ free media comprising 10 mM HEPES, 5 mM Tris, 140 mM choline chloride, 2 mM KCl, 1 mM CaCl2, and 1 mM MgCl2 (pH7.4) for 30 min. […] A 100 μL aliquot of samples was transferred to 96-well plates and the fluorescence of Lucifer yellow was read directly in a fluorescence plate reader using a 485 nm excitation and an emission filter of 535 nm.

[2] = biological target: T1, MATE2-K (Homo sapiens, UniProt Q86VL8); experiment: Inhibition of MATE2-K-mediated [14C]metformin uptake in HEK293-MATE2-K cells; type: cell-based; parameters: host or cells: HEK293; settings: read-out: IC50 on MATE2-K-mediated metformin uptake, 10 µM [14C]metformin, 5 min
Procedure: (§1) HEK293 cells overexpressing OCT1, OCT2, MATE1, and MATE2-K (HEK293-OCT1, -OCT2, MATE1, and MATE2-K, respectively; Corning, Tewksbury, MA, USA) were used and characterized as previously described. […] In HEK293-MATE1 or -MATE2-K cells, 2 mM sodium butyrate was also supplemented in the culture medium. […] Sigma, St. Louis, MO, USA) and incubated for 30 min in HBSS. In HEK293-MATE1, or -MATE2-K cells, 40 mM ammonium chloride was also added for the outwardly directed proton gradient. […] After the 5 min incubation, cells were washed three times with 200 µL of ice-cold HBSS immediately after placing the plates on ice. Then, the cells were lysed with 10% sodium dodecyl sulfate (SDS) and the cell lysates were mixed with Optiphase cocktail solution. Thereafter, the radioactivity of the cell lysates was measured using a liquid scintillation counter (Microbeta 2, Perkin Elmer Inc., Boston, MA, USA).

[3] = biological target: T2, OCT2 (Homo sapiens, UniProt O15244); settings: read-out: IC50 for OCT2 reported in the literature; cited from earlier work
T2 sequence (O15244 1-555): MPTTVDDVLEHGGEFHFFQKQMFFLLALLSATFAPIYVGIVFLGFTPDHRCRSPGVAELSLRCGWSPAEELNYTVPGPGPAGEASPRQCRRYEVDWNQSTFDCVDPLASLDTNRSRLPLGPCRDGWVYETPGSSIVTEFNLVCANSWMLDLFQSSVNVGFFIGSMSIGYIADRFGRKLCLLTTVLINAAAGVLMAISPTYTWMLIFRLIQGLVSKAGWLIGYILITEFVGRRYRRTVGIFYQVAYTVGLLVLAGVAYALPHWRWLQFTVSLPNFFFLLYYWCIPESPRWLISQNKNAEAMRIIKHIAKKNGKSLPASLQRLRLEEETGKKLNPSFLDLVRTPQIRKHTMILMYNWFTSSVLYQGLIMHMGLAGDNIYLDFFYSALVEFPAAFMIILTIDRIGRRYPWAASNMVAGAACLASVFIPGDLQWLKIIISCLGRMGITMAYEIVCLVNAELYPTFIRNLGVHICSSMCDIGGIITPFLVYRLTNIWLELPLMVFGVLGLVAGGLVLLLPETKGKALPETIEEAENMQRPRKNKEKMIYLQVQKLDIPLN

[4] = biological target: T3, OCT1 (Homo sapiens, UniProt O15245); experiment: Inhibition of OCT1-mediated [14C]metformin uptake in HEK293-OCT1 cells; type: cell-based; parameters: host or cells: HEK293
T3 sequence (O15245 1-554): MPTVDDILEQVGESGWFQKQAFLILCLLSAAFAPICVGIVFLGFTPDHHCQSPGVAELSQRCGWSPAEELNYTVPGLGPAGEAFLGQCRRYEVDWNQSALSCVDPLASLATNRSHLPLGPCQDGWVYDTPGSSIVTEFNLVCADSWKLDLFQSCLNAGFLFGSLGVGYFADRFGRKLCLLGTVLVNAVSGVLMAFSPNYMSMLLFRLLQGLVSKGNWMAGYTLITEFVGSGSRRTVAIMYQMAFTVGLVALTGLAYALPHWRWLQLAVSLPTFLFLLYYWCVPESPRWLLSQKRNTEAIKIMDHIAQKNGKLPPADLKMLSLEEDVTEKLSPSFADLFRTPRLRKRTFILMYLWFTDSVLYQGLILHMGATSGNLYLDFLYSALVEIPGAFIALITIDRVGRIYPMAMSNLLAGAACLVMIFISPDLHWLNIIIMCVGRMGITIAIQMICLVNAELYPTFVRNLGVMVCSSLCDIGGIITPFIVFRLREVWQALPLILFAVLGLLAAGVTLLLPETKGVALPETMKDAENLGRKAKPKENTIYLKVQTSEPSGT
Procedure: as §1

[5] = biological target: T2, OCT2; experiment: Inhibition of OCT2-mediated [14C]metformin uptake in HEK293-OCT2 cells; type: cell-based; parameters: host or cells: HEK293
Procedure: as §1

[6] = biological target: T3, OCT1; settings: read-out: IC50 for OCT1 reported in the literature; cited from earlier work
[7] = biological target: T1, MATE2-K; settings: read-out: IC50 for MATE2-K reported in the literature; cited from earlier work
[8] = biological target: T4, MATE1 (Homo sapiens, UniProt Q96FL8); settings: read-out: IC50 for MATE1 reported in the literature; cited from earlier work
T4 sequence (Q96FL8 1-570): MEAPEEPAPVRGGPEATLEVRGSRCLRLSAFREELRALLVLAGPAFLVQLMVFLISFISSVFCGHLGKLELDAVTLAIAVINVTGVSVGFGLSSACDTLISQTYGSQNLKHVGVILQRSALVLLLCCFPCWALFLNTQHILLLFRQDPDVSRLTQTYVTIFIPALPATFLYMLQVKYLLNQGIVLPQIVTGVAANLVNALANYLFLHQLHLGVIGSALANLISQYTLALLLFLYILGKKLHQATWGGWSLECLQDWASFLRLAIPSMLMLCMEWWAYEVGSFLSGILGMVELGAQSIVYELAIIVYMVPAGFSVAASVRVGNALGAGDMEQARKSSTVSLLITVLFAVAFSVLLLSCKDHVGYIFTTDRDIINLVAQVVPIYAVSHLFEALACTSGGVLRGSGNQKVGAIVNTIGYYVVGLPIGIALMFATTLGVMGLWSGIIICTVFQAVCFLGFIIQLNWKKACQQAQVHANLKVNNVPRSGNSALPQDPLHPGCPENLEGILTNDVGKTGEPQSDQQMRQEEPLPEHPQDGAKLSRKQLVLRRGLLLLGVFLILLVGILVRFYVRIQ

[9] = Pharmacokinetics of metformin after oral administration in rats; settings: metformin 50 mg/kg PO, rat; for AUC(0-t): AUC24h
Procedure: (§2) Aliquots of plasma (20 µL) and urine (50 µL) samples were vigorously mixed with 200 μL methanol containing 20 ng/mL propranolol (internal standard, IS) for 10 min.
(§3) Samples were eluted through a Synergy Polar RP column (2.0 mm × 150 mm, 4 µm particle size, Phenomenex, Torrence, CA, USA) using a mobile phase that consisted of methanol and water (70:30, v/v) with 0.1% formic acid at a flow rate of 0.2 mL/min. […] Pharmacokinetic parameters were evaluated from plasma concentration versus time curves by using non-compartment analysis of WinNonlin (version 5.1; Pharsights, Cary, NC, USA).

[10] = parameters: method as in PMID 26869413; settings: cited from earlier work
[11] = Pharmacokinetics of metformin after intravenous injection in rats; settings: rat; for Ae24h (fraction of dose excreted in urine for 24 h as parent form) / AUC(0-t) / AUC(0-inf) / MRT: metformin […] IV; for AUC(0-t) / AUC(0-inf) / C0 / MRT: plasma, iv; for AUC(0-t): AUC24h; for C0: C0, metformin […] IV
Procedure: An aliquot (50 µL) of urine samples was stored at −80 °C for the analysis.
as §2, §3

[12] = plasma, po, 50 mg/kg, 1WRA of RGE 1.5 g/kg/day
[13] = plasma, po, 50 mg/kg, SA of RGE 1.5 g/kg

T1 sequence (Q86VL8 1-566 isoform Q86VL8-3): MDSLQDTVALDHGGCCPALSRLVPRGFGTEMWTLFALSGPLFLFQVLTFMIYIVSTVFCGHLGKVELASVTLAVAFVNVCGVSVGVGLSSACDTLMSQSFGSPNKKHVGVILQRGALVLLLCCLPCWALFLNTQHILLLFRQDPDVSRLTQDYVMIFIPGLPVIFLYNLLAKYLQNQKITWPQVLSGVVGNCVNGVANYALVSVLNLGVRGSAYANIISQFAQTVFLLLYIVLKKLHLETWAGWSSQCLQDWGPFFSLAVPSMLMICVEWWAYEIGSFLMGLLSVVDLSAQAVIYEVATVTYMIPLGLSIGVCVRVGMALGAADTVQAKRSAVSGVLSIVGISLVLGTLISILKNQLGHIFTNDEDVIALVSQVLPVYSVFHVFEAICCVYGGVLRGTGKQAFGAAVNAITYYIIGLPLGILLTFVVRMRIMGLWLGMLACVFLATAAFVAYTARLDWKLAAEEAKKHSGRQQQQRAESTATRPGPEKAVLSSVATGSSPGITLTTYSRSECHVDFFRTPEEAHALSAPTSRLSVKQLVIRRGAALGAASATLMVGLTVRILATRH

For `CO[C@@H]([C@H](O)[C@H](O)CO)[C@@H](O)C=O` [3-O-methyl-D-glucose], the “Intestinal absorptive permeability (Papp), effect of RGE” value ([1]; 50 µM, duodenum, jejunum, ileum, SA and 1WRA groups vs control) was “not affected”.

In the case of `CN/C(=N/CCSCc1nc[nH]c1C)NC#N` [cimetidine], the IC50 [2] is listed as 5.03 µM, the IC50 [3] is listed as 110 µM and the IC50 [4] is listed as 61.8 µM. For the same compound, the IC50 [5] was 197 µM, the IC50 [6] was 57 µM and the IC50 [7] was 4.8 µM. For the same compound, the IC50 [8] was 0.7 µM.

For `CN(C)C(=N)N=C(N)N` [metformin, Metformin], the “Ae24h (fraction of dose excreted in urine for 24 h as parent form)” value ([9]; 1WRA of RGE 1.5 g/kg/day) was 66.29 ± 10.57 %, the Tmax ([9]; 1WRA of RGE 1.5 g/kg/day) was 2.00 ± 0.01 h and the “Ae24h (fraction of dose excreted in urine for 24 h as parent form)” value ([9]; Control) was 54.56 ± 3.26%. The “Ae24h (fraction of dose excreted in urine for 24 h as parent form)” value ([9]; SA of RGE 1.5 g/kg) was 53.04 ± 3.69%, the AUC(0-t) [9, 12] was 57600 ± 4990 ng·h/mL and the AUC(0-t) ([9]; plasma, po, 50 mg/kg, Control) was 44300 ± 8310 ng·h/mL. The AUC(0-t) [9, 13] was 45200 ± 11100 ng·h/mL, the AUC(0-inf) [9, 12] was 59000 ± 5170 ng·h/mL and the AUC(0-inf) ([9]; plasma, po, 50 mg/kg, Control) was 44800 ± 8090 ng·h/mL. It also gave an AUC(0-inf) [9, 13] of 45700 ± 11200 ng·h/mL, a Cmax [9, 12] of 9900 ± 1490 ng/mL and a Cmax ([9]; plasma, po, 50 mg/kg, Control) of 6310 ± 1680 ng/mL. The Cmax [9, 13] was 6470 ± 2000 ng/mL, the MRT [9, 12] was 4.64 ± 0.68 h and the MRT ([9]; plasma, po, 50 mg/kg, Control) was 4.85 ± 0.58 h. For the same compound, the MRT [9, 13] was 4.69 ± 0.33 h, the Tmax ([9]; plasma, po, 50 mg/kg, Tmax, Control) was 2.4 ± 0.89 h and the “Fraction of dose absorbed in the duodenum” value [10] was “Approximately 20%”. The “Fraction of dose absorbed in the jejunum and ileum” value [10] was 60%, the “Ae24h (fraction of dose excreted in urine for 24 h as parent form)” value ([11]; 1WRA of RGE 1.5 g/kg/day) was 79.56 ± 5.02% and the “Ae24h (fraction of dose excreted in urine for 24 h as parent form)” value ([11]; Control) was 80.07 ± 4.93%. The “Ae24h (fraction of dose excreted in urine for 24 h as parent form)” value ([11]; SA of RGE 1.5 g/kg) was 83.52 ± 5.72%, the AUC(0-t) ([11]; 1WRA of RGE 1.5 g/kg/day) was 980 ± 362 ng·h/mL and the AUC(0-t) ([11]; SA of RGE 1.5 g/kg) was 1050 ± 237 ng·h/mL. The AUC(0-inf) ([11]; 1WRA of RGE 1.5 g/kg/day) was 986 ± 364 ng·h/mL, the AUC(0-inf) ([11]; SA of RGE 1.5 g/kg) was 1050 ± 239 ng·h/mL and the C0 ([11]; 1WRA of RGE 1.5 g/kg/day) was 1760 ± 438 ng/mL. The C0 ([11]; SA of RGE 1.5 g/kg) was 1670 ± 623 ng/mL, the MRT ([11]; 1WRA of RGE 1.5 g/kg/day) was 0.85 ± 0.35 h and the MRT ([11]; SA of RGE 1.5 g/kg) was 0.81 ± 0.17 h.

For Lucifer yellow, the “Intestinal absorptive permeability (Papp), effect of RGE” value [1] was “not altered”.
